Data taken from US7338809B2, “Method for assaying whole blood” (Mitsubishi Kagaku Iatron, Inc., priority 2001, dated 2008).
“Also recorded” adds a separate entry of the source.

What was measured:
whole blood [1] = test: Example 3: visual inspection of reaction system with whole blood treatment solutions (hemolysis, adhesion and aggregation of magnetic particles)
Protocol: Examination was conducted on the assumption that a detergent was added to the reaction system by adding the detergent to a whole blood treatment solution beforehand. The whole blood treatment solutions were prepared by dissolving various detergents in 0.1 M Tris buffer (pH 8.0) containing 1% BSA and 0.15 M NaCl, and it was examined which detergent was suitable for the measurement method of the present invention.
Blood was collected by using an EDTA blood collection tube. Then, HBsAg was added at 1 U/ml to each of the whole blood stored at 4° C. for 3 days and plasma obtained from the whole blood by centrifugation, and a recovery test for HBsAg was performed using the luminescence intensity obtained in the measurement using plasma, which was taken as 100%.
The assay was performed in the same manner as in Example 2. Whole blood and each of the various whole blood treatment solutions were mixed at a ratio of 9:1, plasma was mixed with purified water at a ratio of 9:1, and HBsAg was immediately measured. Further, whole blood was mixed with the aforementioned buffer (0.1 M Tris buffer (pH 8.0) containing 1% BSA and 0.15 M NaCl) without adding a detergent instead of a whole blood treatment solution, and HBsAg was measured in the same manner. Presence or absence of hemolysis in the reaction system, non-specific adhesion of magnetic particles on the reaction vessel (made of polypropylene) and non-specific aggregation of magnetic particles during reaction were confirmed by visual inspection.

whole blood [2] = test: Example 4: visual inspection of reaction system, types and concentrations of detergents (hemolysis, adhesion, aggregation); details: heparin whole blood stored overnight at 4° C.
Protocol: Blood was collected by using a blood collection tube treated with heparin as an anticoagulant. […] Each detergent was added at a concentration of 0.01, 0.1, 0.5, 1 and 10% as a final concentration after the mixing with whole blood. Presence or absence of hemolysis in the reaction system, non-specific adhesion of magnetic particles on the reaction vessel (made of polypropylene) and non-specific aggregation of magnetic particles during reaction were confirmed by visual inspection for each detergent in each reaction system, and recovery ratio with respect to the added amount was determined.

whole blood [3] = test: Example 5: visual inspection of reaction system using fresh whole blood (hemolysis, adhesion, aggregation)
Protocol: In emergent tests, in particular, it is desirable to perform an assay immediately after blood collection, and erythrocytes in whole blood may be gradually hemolyzed during storage, possibly affecting the measurement. Therefore, examination was performed by using fresh blood immediately after blood collection.

[4] = detergent 1% upon mixing of whole blood, EDTA whole blood stored at 4° C. for 3 days, visual inspection

Q: For “Polyoxyethylene octyl phenyl ether [Triton X-100]”, which Hemolysis (whole blood [1]; [4]) is on record?
A: The Hemolysis was “Present”.

Q: What about the Hemolysis (whole blood [2]; detergent 0.01% upon mixing of whole blood) of the same molecule?
A: The Hemolysis was “Absent”.

Q: And the Hemolysis (whole blood [2]; detergent 0.1% upon mixing of whole blood)?
A: Its Hemolysis is “Absent”.

Q: What about the Hemolysis (whole blood [2]; detergent 0.5% upon mixing of whole blood) of the same molecule?
A: The Hemolysis was “hemolysis was observed; also recorded: Present”.

Q: And the Hemolysis (whole blood [2]; detergent 1% upon mixing of whole blood)?
A: The Hemolysis was “Present”.

Q: What about the Hemolysis (whole blood [2]; detergent 10% upon mixing of whole blood) of the same molecule?
A: Its Hemolysis is “Present”.

Q: Which Hemolysis (whole blood [1]) does the source give for `O=S(=O)([O-])CCC[n+]1ccccc1` here?
A: Its Hemolysis is “Absent”.

Q: And the Hemolysis (whole blood [3])?
A: The Hemolysis was “Absent”.

Q: How did the Hemolysis (whole blood [1]; [4]) turn out when `C[C@H](CCC(=O)NCCC[N+](C)(C)CCCS(=O)(=O)[O-])[C@H]1CC[C@H]2[C@@H]3[C@H](O)C[C@@H]4C[C@H](O)CC[C@]4(C)[C@H]3C[C@H](O)[C@]12C` [CHAPS, 3-{(3-Cholamidopropyl)dimethylammonio}-1-propanesulfonate] was run?
A: Its Hemolysis is “Present”.

Q: With Saponin as the molecule, how does the Hemolysis (whole blood [1]) read?
A: The Hemolysis was “Present”.

Q: How did the Hemolysis (whole blood [1]; [4]) turn out when Polyoxyethylene stearyl ether [Brij 78] was run?
A: The Hemolysis was “Present”.
